From US9815850B2, “Compounds, compositions and methods” (Denali Therapeutics Inc., priority 2016, dated 2017) come the findings set out here.

In general, IC50 refers to the point on the concentration scale where inhibition reaches its midpoint.

Data set [1] deals with human cryopreserved hepatocytes. The experiment in a line: Metabolic stability (hepatocytes). The class given is in vitro ADME. Particulars: well-stirred model. An excerpt:
Hepatic clearance is expressed as mL/min/kg.

In data set [2] the target is P-gp (P-glycoprotein, MDR1) (Homo sapiens (Human), UniProt P08183). The data set is described as follows: MDCKII-MDR1 permeability, efflux ratio. Particulars: dog, MDCK-MDR1, pH 7.4, MDCKII-MDR1 cells, read-out: ER MDR1. The data set is classed as in vitro ADME. Here is the method: The blood brain barrier (BBB) separates circulating blood from the extracellular fluid of the central nervous system (CNS). The passive membrane permeability (Papp) and the P-gp (P-glycoprotein) substrate efflux potential were determined using the MDCKII-MDR1 cell line as an in vitro model of the effective permeability of a compound through the BBB. A bidirectional assay (Apical to Basolateral (A→B) and Basolateral to Apical (B→A)), in the absence and in the presence of GF120918 (a P-gp inhibitor) was conducted using pre-plated MDCKII-MDR1 cells (Corning HTS Transwell-96) obtained from SOLVO Biotechnology. The assay was run at 3 μM for 90 min (minutes) in triplicate using a HBSS+12.5 mM HEPES pH 7.4 transport buffer. Following incubation of samples from donor and receiver, wells were removed and measured by LC-MS/MS. Samples were extracted by protein precipitation with acetonitrile containing an appropriate internal standard (IS) having a known mass and molecular weight. The precipitate was centrifuged for 10 min at 3000 rpm (revolutions per minute). The supernatants were then collected, diluted if necessary, and injected on to the LC-MS/MS system. […] Papp (apparent permeability expressed in nm/sec [nanometer/second]) values were calculated according to the following equation: […]
Where dQ/dt is the permeability rate, C0 is the initial concentration in the donor solution (expressed as IS ratio), A and B are the surface areas of the filter (the surface area of the cell monolayer).
Monolayer efflux ratios (ER) were derived using the following equation: […]

The subject of data set [3] is FADD-deficient Jurkat cells. The data set is described as follows: Cellular necroptosis assay (human TNFα-induced). The class given is cell-based. Particulars: read-out: Cell IC50. The procedure:
Ten concentrations of the test compounds were assessed in duplicate in two different test occasions. […] The day of the experiment cells were diluted to a density of […] (5,000 cells/well) with culture medium and added (40 μL) into the 384-well plate containing 0.2 μL/well of test compounds and reference compounds (CRCs) (200×). Cell plates were then incubated at 37° C.-5% CO2. After 30 min, necroptotic cell death was induced with human TNFα (10 ng/mL) and cell viability was evaluated 48 h later by measuring cellular ATP levels using CellTiter-Glo® kit (Promega). Luminescence was read by using Victor V (Perkin Elmer) multilabel plate reader.

For data set [4] the following is noted: in vivo.
Method: (§1) The protein binding in plasma was determined using a Rapid Equilibrium Dialysis Device (Thermo Scientific RED Device) or 96-well dialyzer apparatus (HTDialysis LLC). […] If required, plasma samples were pre-incubated (2 hours at 37° C.) with diisopropyl fluorophosphate (DFP) at the final concentration of 100 μM to prevent compound degradation due to amide hydrolysis. Appropriate volumes of spiked samples along with blank phosphate buffer were added to either device and incubated at 37° C. for a total of 5 hours with agitation at 500 rpm. Following incubation, an equal aliquot of dialysed matrix (plasma or buffer) is added to an equal volume of the opposite blank matrix such that the volume of buffer to plasma are equal. Mixed matrix samples were extracted by protein precipitation using acetonitrile containing the appropriate IS. Samples were then centrifuged for 10 min at 2800 rpm. Supernatants were collected and diluted and then injected on to an HPLC-MS/MS or UPLC-MS/MS system. Samples were analyzed by monitoring the appropriate parent/daughter ion transitions for the test and control compounds. The peak area ratios were used to measure test item concentrations. The fraction unbound (Afu) was determined as the ratio of the peak area ratio in buffer divided by the peak area ratio in plasma.
(§2) The PK properties of test articles were determined in male Sprague-Dawley Crl:CD(SD) rats, male Beagle dogs and male cynomolgus monkeys. Studies were conducted to the highest standards of animal welfare in accordance with national legislation and under approval of the internal animal care and use committees.
(§3) Compounds were administered by IV bolus to animals following an overnight fast. […] The formulations were administered at dose volumes ranging from 0.5-2 mL/kg. The IV dose ranged from 0.5-1 mg/kg.
(§4) Following dose administration, 8-9 serial blood samples were collected over 24 hours. Samples were mixed with anticoagulant and placed on wet ice prior to processing. Plasma was harvested following centrifugation, extracted using protein precipitation with acetonitrile containing IS. The processed supernatant was analyzed using UPLC or LC-MS/MS using specific parent/daughter ion pairs for the test article and IS. Plasma concentrations were determined using a calibration curve prepared using known concentrations of analyte. Pharmacokinetic parameters utilizing measured concentrations were calculated using Phoenix WinNonlin. The unbound plasma clearance was calculated as the ratio of the total body clearance divided by the fraction unbound in plasma.
A further data set concerns the target GST-hRIPK1 (8-327) (Homo sapiens (Human), UniProt Q13546). The experiment in a line: Fluorescent Polarization Binding (FP Binding) assay. Here is the method:
Fluorescent Polarization Binding (FP Binding) assay (Berger S. B. et al. […] Maki J. L. et al. […] Test Compounds were serially diluted in DMSO at 100 fold final concentrations in the assay (1% DMSO final). […] For negative control the enzyme addition was replaced by assay buffer only. After addition of 5 μL of fluorescent labeled ligand at twice the final concentrations in assay buffer, the plate was incubated at RT for 30 min.

For the next data set, the system named is TNF/zVAD. The experiment in a line: TNF-driven systemic inflammatory response syndrome model. The data set is classed as in vivo. To be noted: 5 mg/kg orally 15 minutes before intravenous TNF/zVAD, mice. The text has this:
The in vivo efficacy of compounds can be determined in mice using a TNF-driven systemic inflammatory response syndrome model as described by Duprez et. al. (2011, Immunity 35(6), 908-918) and Berger et. al. (2015, Cell Death Disc. 1, 15009). In this model system TNF/zVAD (tumor necrosis factor/Z-Val-Ala-DL-Asp-fluoromethylketone, a caspase inhibitor) treatment results in temperature loss and the production of several inflammatory cytokines. The ability of a test compound to inhibit these inflammatory effects can be measured in this model by dosing mice with test compound 15 minutes before administration of TNF/zVAD and measuring the inflammatory response. The dose required to inhibit the inflammatory response is a measure of the compounds efficacy at that dose. Using this model, Compound 42 was orally pre-dosed at 5 mg/kg 15 minutes before intravenous administration of TNF/zVAD and temperature loss in the mice was measured by an implanted temperature chip. […] The decrease in dosing has a number of important potential advantages, including requiring less frequent administration to a patient, increased patient compliance, and improved safety profile such as lower toxicities while achieving similar efficacy.

For data set [5] the following is noted: male, Beagle, in vivo.
Method: as §1
The PK properties of test articles were determined in male Sprague-Dawley Crl:CD(SD) rats, male Beagle dogs and male cynomolgus monkeys. […]
Following dose administration, 8-9 serial blood samples were collected over 24 hours. […] The processed supernatant was analyzed using UPLC or LC-MS/MS using specific parent/daughter ion pairs for the test article and IS. Plasma concentrations were determined using a calibration curve prepared using known concentrations of analyte. Pharmacokinetic parameters utilizing measured concentrations were calculated using Phoenix WinNonlin. The unbound plasma clearance was calculated as the ratio of the total body clearance divided by the fraction unbound in plasma.
The conditions of data set [6]: cynomolgus monkey, in vivo.
Method: as §1, §2, §3, §4
Data set [7] has as its system human cryopreserved hepatocytes. The data set is described as follows: Metabolic stability (hepatocytes). To be noted: from human CLhep. The data set is classed as in vitro ADME.
Setting [8] is: male, Sprague-Dawley Crl:CD(SD).
[9] abbreviates: 10 nM GST-hRIPK1 (8-327), 5 nM fluorescent labeled ligand, read-out: FP IC50.
Setting [10] is: Homo sapiens, 48 h, human TNFα 10 ng/mL, viability after 48 h.

Molecules are shown by their SMILES. Read-outs that look alike come from different tables or passages of the source.

Sequence of GST-hRIPK1 (8-327) (Q13546 8-327): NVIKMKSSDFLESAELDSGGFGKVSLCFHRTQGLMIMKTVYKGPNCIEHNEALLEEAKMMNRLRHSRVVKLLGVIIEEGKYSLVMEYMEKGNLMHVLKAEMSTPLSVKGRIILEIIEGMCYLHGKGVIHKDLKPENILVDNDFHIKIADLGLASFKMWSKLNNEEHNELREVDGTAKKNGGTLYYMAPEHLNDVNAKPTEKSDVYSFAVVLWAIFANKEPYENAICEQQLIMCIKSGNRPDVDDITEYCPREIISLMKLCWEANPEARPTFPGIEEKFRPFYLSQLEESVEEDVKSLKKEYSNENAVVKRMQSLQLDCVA
Sequence of P-gp (P-glycoprotein, MDR1) (P08183 whole entry): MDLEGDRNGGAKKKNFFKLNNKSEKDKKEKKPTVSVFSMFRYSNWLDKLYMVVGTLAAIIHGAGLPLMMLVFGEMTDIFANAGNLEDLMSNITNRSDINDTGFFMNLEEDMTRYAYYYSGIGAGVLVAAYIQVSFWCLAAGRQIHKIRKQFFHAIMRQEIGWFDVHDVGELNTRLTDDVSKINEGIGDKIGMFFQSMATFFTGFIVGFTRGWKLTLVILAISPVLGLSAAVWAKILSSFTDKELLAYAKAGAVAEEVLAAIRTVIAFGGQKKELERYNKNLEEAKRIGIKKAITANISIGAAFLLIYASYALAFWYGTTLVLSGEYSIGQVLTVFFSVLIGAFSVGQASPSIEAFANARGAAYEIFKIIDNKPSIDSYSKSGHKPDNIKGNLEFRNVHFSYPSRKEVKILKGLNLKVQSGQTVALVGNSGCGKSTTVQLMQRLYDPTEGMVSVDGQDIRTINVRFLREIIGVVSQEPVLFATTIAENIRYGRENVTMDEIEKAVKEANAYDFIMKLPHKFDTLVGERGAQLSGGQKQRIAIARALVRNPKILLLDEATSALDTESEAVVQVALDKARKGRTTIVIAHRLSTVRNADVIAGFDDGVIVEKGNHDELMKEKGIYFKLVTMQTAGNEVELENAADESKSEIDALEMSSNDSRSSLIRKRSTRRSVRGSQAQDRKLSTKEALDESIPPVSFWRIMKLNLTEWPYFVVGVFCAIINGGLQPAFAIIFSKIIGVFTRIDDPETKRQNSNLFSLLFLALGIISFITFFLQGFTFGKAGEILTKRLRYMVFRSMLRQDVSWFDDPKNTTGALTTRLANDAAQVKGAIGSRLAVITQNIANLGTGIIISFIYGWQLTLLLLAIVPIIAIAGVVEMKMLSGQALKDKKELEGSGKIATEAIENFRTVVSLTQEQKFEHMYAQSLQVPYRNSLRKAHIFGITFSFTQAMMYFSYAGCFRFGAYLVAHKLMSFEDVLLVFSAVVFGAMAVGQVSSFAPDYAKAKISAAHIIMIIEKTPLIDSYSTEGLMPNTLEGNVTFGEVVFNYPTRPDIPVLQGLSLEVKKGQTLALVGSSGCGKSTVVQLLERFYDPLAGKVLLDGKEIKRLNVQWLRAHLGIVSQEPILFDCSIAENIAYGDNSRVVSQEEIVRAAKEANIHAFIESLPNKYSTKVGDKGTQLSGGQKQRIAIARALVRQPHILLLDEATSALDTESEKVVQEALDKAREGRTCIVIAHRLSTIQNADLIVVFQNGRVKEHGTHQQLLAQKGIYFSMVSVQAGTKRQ

With `CN1C(=O)[C@@H](NC(=O)c2nnc(Cc3ccccc3)o2)COc2ccccc21` [B, reference compound], in data set [1], the “Human hepatocyte CLhep Avg” value was 14 mL/min/kg. Also, the efflux ratio at 90 min, 3 μM in data set [2] was determined as 1.

As to `CN1C(=O)[C@@H](NC(=O)c2cc(Cc3ccccc3)on2)COc2ccccc21` [C, reference compound], the “Human hepatocyte CLhep Avg” value in data set [1] is given as 19 mL/min/kg. The efflux ratio at 90 min, 3 μM in [2] amounted to 0.9.

For the molecule `CN1C(=O)[C@@H](NC(=O)c2cc(C3(c4ccccc4)CC3)on2)COc2ccccc21` [Example 8, (S)-N-(5-methyl-4-oxo-2,3,4,5-tetrahydrobenzo[b][1,4]oxazepin-3-yl)-5-(1-phenylcyclopropyl)isoxazole-3-carboxamide], the IC50 in data set [3] (human TNFα 10 ng/mL, viability after 48 h) was found to be 4 nM. Moreover, in data set [2], the efflux ratio at 90 min, 3 μM came out at 0.8. For the same molecule, in [4] (setting [8]), the “Rat unbound CL” value is listed as 3700 mL/min/kg.

On to `CN1C(=O)[C@@H](NC(=O)c2nnc(Cc3ccccc3)[nH]2)COc2cccnc21` [Example 42, (S)-5-benzyl-N-(5-methyl-4-oxo-2,3,4,5-tetrahydropyrido[3,2-b][1,4]oxazepin-3-yl)-4H-1,2,4-triazole-3-carboxamide], for which the 50% inhibitory concentration (IC50) at GST-hRIPK1 (8-327) was 0.1 to 1000 nM; in [3] (Homo sapiens, 48 h), 0.1 to 1000 nM. Besides, the “Human hepatocyte CLhep Avg” value in data set [1] turned out to be 0.8 mL/min/kg. For the same molecule, in data set [2], the efflux ratio at 90 min, 3 μM amounted to 19. In the data set with TNF/zVAD, the “inhibition of temperature loss” value is given as 96%. In data set [4] (setting [8]), the “Rat unbound CL” value is reported as 22 mL/min/kg. Further, the “Dog unbound CL” value in data set [5] stood at 64 mL/min/kg. Also, the “Cyno unbound CL” value in data set [6] (male) came to 42 mL/min/kg. In [7], the “clearance as % of liver blood flow” value is on record as “less than 4%”.

For the molecule `CN1C(=O)[C@@H](NC(=O)c2nnc(C3(c4ccccc4)CC3)o2)COc2cccnc21` [Example 66, (S)—N-(5-methyl-4-oxo-2,3,4,5-tetrahydropyrido[3,2-b][1,4]oxazepin-3-yl)-5-(1-phenylcyclopropyl)-1,3,4-oxadiazole-2-carboxamide], the IC50 at GST-hRIPK1 (8-327) (setting [9]) lay within 0.1 to 1000 nM. Also, in data set [1], the “Human hepatocyte CLhep Avg” value is on record as 6.3 mL/min/kg. Also, the efflux ratio at 90 min, 3 μM in data set [2] was determined as 1.6. Moreover, the “Rat unbound CL” value in data set [4] (setting [8]) amounted to 113 mL/min/kg. Besides, the “Dog unbound CL” value in [5] turned out to be 36 mL/min/kg. Also, in data set [6] (male), the “Cyno unbound CL” value turned out to be 116 mL/min/kg.

With `CN1C(=O)[C@@H](NC(=O)c2nnc(Cc3ccccc3)[nH]2)[C@H]2C[C@H]2c2cccnc21` [Example 75A, 5-benzyl-N-((1aS,2S,8bR)-4-methyl-3-oxo-1,1a,2,3,4,8b-hexahydrocyclopropa[d]pyrido[2,3-b]azepin-2-yl)-4H-1,2,4-triazole-3-carboxamide], at GST-hRIPK1 (8-327) (setting [9]), the IC50 fell in the range of 0.1 to 1000 nM. Further, the “Human hepatocyte CLhep Avg” value in data set [1] worked out at 9.1 mL/min/kg. The efflux ratio at 90 min, 3 μM in [2] is 24. Further, the “Rat unbound CL” value in [4] (setting [8]) was 91 mL/min/kg. In data set [6] (male), the “Cyno unbound CL” value was found to be 93 mL/min/kg.

Consider `CN1C(=O)[C@@H](NC(=O)c2cc(C3(c4ccccc4)CC3)on2)COc2cccnc21` [Example 77, (S)—N-(5-methyl-4-oxo-2,3,4,5-tetrahydropyrido[3,2-b][1,4]oxazepin-3-yl)-5-(1-phenylcyclopropyl)isoxazole-3-carboxamide], for which the half-inhibitory concentration (IC50) on GST-hRIPK1 (8-327) (setting [9]) fell in the range of 0.1 to 1000 nM. Besides, in [1], the “Human hepatocyte CLhep Avg” value is reported as 19 mL/min/kg. For the same molecule, in data set [2], the efflux ratio at 90 min, 3 μM is 0.6. In addition, in data set [4] (setting [8]), the “Rat unbound CL” value was determined as 595 mL/min/kg.

Consider `O=C(N[C@@H]1C(=O)Nc2c(F)cc(F)cc2[C@@H]2C[C@H]12)c1nnc(Cc2ccccc2)[nH]1` [Example 83A, 5-benzyl-N-((1aS,2S,8bR)-5,7-difluoro-3-oxo-1,1a,2,3,4,8b-hexahydrobenzo[b]cyclopropa[d]azepin-2-yl)-4H-1,2,4-triazole-3-carboxamide], for which the IC50 on GST-hRIPK1 (8-327) (setting [9]) was 0.1 to 1000 nM. Moreover, the “Human hepatocyte CLhep Avg” value in data set [1] was 1.0 mL/min/kg. For the same molecule, the efflux ratio at 90 min, 3 μM in [2] worked out at 29. The “Rat unbound CL” value in [4] (setting [8]) was determined as 116 mL/min/kg. Besides, the “Cyno unbound CL” value in [6] (male) is 82 mL/min/kg.

For the molecule `C[C@H]1Oc2cccnc2N(C)C(=O)[C@H]1NC(=O)c1nn(Cc2ccccc2)cc1F` [Example 92, 1-benzyl-N-((2R,3S)-2,5-dimethyl-4-oxo-2,3,4,5-tetrahydropyrido[3,2-b][1,4]oxazepin-3-yl)-4-fluoro-1H-pyrazole-3-carboxamide], in data set [3] (setting [10]), the IC50 came to 0.7 nM. The efflux ratio at 90 min, 3 μM in [2] is 1.4. Moreover, in [4] (setting [8]), the “Rat unbound CL” value was found to be 420 mL/min/kg.

For the molecule `C[C@H]1Oc2cccnc2N(C)C(=O)[C@H]1NC(=O)c1nnc(Cc2ccccc2)[nH]1` [Example 94, 5-benzyl-N-((2R,3S)-2,5-dimethyl-4-oxo-2,3,4,5-tetrahydropyrido[3,2-b][1,4]oxazepin-3-yl)-4H-1,2,4-triazole-3-carboxamide], the IC50 in data set [3] (setting [10]) came to 6 nM. Moreover, in data set [2], the efflux ratio at 90 min, 3 μM stood at 14. In data set [4] (setting [8]), the “Rat unbound CL” value was found to be 44 mL/min/kg. For the same molecule, the “Cyno unbound CL” value in data set [6] (male) turned out to be 40 mL/min/kg.

Turning to `C[C@H]1Oc2cccnc2N(C)C(=O)[C@H]1NC(=O)c1nnc(Cc2ccccc2)o1` [Example 134, 5-Benzyl-N-((2R,3S)-2,5-dimethyl-4-oxo-2,3,4,5-tetrahydropyrido[3,2-b][1,4]oxazepin-3-yl)-1,3,4-oxadiazole-2-carboxamide], in data set [3] (setting [10]), the IC50 is 3 nM. Moreover, the efflux ratio at 90 min, 3 μM in data set [2] is 1.1. In addition, in data set [4] (setting [8]), the “Rat unbound CL” value turned out to be 100 mL/min/kg. For the same molecule, the “Cyno unbound CL” value in data set [6] (male) is on record as 140 mL/min/kg.

With `CN1C(=O)[C@@H](NC(=O)c2nnc(Cc3ccccc3)o2)COc2cccnc21` [Example 146, (S)-5-benzyl-N-(5-methyl-4-oxo-2,3,4,5-tetrahydropyrido[3,2-b][1,4]oxazepin-3-yl)-1,3,4-oxadiazole-2-carboxamide], the IC50 in [3] (setting [10]) was 0.7 nM. Besides, the efflux ratio at 90 min, 3 μM in data set [2] worked out at 1. In addition, the “Rat unbound CL” value in [4] (setting [8]) came out at 61 mL/min/kg. Moreover, the “Cyno unbound CL” value in data set [6] (male) is listed as 39 mL/min/kg.

Consider `C[C@H]1Oc2cccnc2N(C)C(=O)[C@H]1NC(=O)c1ncn(Cc2cccc(C#N)c2)n1` [Example 172, 1-(3-cyanobenzyl)-N-((2R,3S)-2,5-dimethyl-4-oxo-2,3,4,5-tetrahydropyrido[3,2-b][1,4]oxazepin-3-yl)-1H-1,2,4-triazole-3-carboxamide], for which, in data set [3] (setting [10]), the half-inhibitory concentration (IC50) worked out at 1 nM. Further, the “Rat unbound CL” value in [4] (setting [8]) worked out at 65 mL/min/kg.

For the molecule `CN1C(=O)[C@@H](NC(=O)c2nnc(Cc3ccccc3)o2)[C@H]2C[C@H]2c2nccnc21` [Example 177A], in data set [4], the “Rat unbound CL” value was 55 mL/min/kg. Moreover, in data set [6], the “Cyno unbound CL” value worked out at 58 mL/min/kg.
